Data set [1] is classed as in vivo, human. Particulars: after either treatment (MT 300 sc or DHE 45 im), LLOQ 50 pg/ml. The method, then:
The study described above in Example 2 utilizes an incomplete crossover design. This protocol is amended to provide a direct comparison of the tolerance and pharmacokinetics of a 2 mg/ml (2.9 mM) formulation of MT 300 (Formulation A-2) and DHE 45®. The present experiment is a randomized, open-label, two period, […], crossover study comparing subcutaneous administration of 1.2 mg of MT 300 and intramuscular administration of 1 mg of DHE 45®. Plasma dihydroergotamine and the 8-hydroxydihydroergotamine metabolite are measured with an LC/MS/MS method, with a LLOQ of 50 pg/ml for both DHE and 8-OH DHE. Serial blood samples are collected for 72 hours after the dose. Seven of 8 subjects complete this study. One subject withdraws from the study due to difficulty in obtaining the blood samples. The adverse event profile is similar to that observed in the study of Example 2.

The nature of data set [2]: Animal studies of DHE absorption with caffeine. Type of data set: in vivo. The settings on record: caffeine at 10:1 weight ratio relative to DHE.
The nature of data set [3]: Solubility of DHE in aqueous formulations with caffeine.
Data set [4] in a line: Example 4: overall tolerance profile (adverse events) of subjects administered DHE. The settings on record: DHE concentration increased from 1.5 mM to 2.9 mM or more, total quantity of DHE constant. Type of data set: in vivo, human. An excerpt: Adverse events occur in 20 of 33 subjects treated with MT 300 and 8 of 13 subjects treated with DHE 45®.
For data set [5] the following is noted: DHE given subcutaneously at 1.5 mM; cited from earlier work.

The values that follow come from patent publication US7060694B2, “High potency dihydroergotamine compositions” (Pozen Inc., priority 1999, dated 2006).

Take 8-hydroxydihydroergotamine [8-OH DHE]: the “plasma levels of 8-OH DHE metabolite” value in data set [1] is recorded as “No significant levels”.
Take `CN1C[C@H](C(=O)N[C@]2(C)O[C@@]3(O)[C@@H]4CCCN4C(=O)[C@H](Cc4ccccc4)N3C2=O)C[C@@H]2c3cccc4[nH]cc(c34)C[C@H]21` [DHE, Dihydroergotamine]: the drug absorption characteristics result in data set [2] is “improves drug absorption characteristics”. Besides, the “solubility of DHE in aqueous formulations” value in data set [3] is reported as “greatly increases the solubility”. Besides, in data set [4], the “side effects, particularly nausea” value is listed as “reduced”. For the same compound, the “nausea in treated patients” value in data set [5] is recorded as around 16%.
